Series [1] deals with rat corneal epithelial wound. The series is described as follows: Corneal Wound Healing Assay (1). The note with it: topical 10 mg/ml (1%) every 6 hour; observed at 0 and 18 hours. The series is classed as in vivo, SD rats. On the procedure: (§1) SD rats (male, 8 weeks, 250 g) were used. Animal study protocol was in accordance with the Association for Research in Vision and Ophthalmology Statement for the Use of Animals in Ophthalmic and Visual Research. All animals were housed in individual cages and maintained under standard conditions (12 hour light-dark cycle).
(§2) 2. Corneal Epithelium Removal Rats were anesthetized by Zoletil® (50 mg/kg, Tiletamina 25 mg, Zolazepam 25 mg; Vibrac, Carros, France) and Rompun® (10 mg/kg, Bayer, France). The cornea was anesthetized by topical 0.5% proparacaine (Alcaine®; Alcon, Fort Worth, Tex., USA). After applying 0.5% proparacaine drops, 5.0 mm Trephine Blade® (Katena, Denville, N.J., USA) was placed and fixed firmly on the corneal surface. One drop of 20% ethanol were put into the tephine well and left in place for 30 seconds, then absorbed with a dry cellulose sponge (Merocel®; Medtronic Solan, Jacksonville, Fla., USA) and irrigated with normal saline. And the epithelium was removed in 6.0 mm diameter.
The drugs were each topically applied in 10 mg/ml (1%) concentration (in 5% DMSO, 10% PEG (Mw 400) and 85% saline (0.9% NaCl)) in every 6 hour.
(§3) The corneal wounds were captured by digital camera under cobalt blue light and the defect area was analyzed by Image J software (Ver 4.1, NIH). The significance between Vehicle and each group was analyzed by paired T-test, and the significance of the test was analyzed by One Way ANOVA analysis.

For series [2], the system named is rat corneal epithelial wound. The series is described as follows: Corneal Wound Healing Assay (2). As to conditions: topical 3 and 6 mg/ml every 6 hour; observed at 0 and 18 hours. Format: in vivo, SD rats. On the procedure:
as §1
as §2, with “Rats” for “2. Corneal Epithelium Removal Rats”
The drugs were each topically applied in 3 mg/ml (0.3%) and 6 mg/ml (0.6%) concentrations (in 5% DMSO, 10% PEG (Mw 400) and 85% saline (0.9% NaCl)) in every 6 hour, respectively.
as §3

In series [3] the test system is corneal angiogenesis. The series is described as follows: Inhibitory effects against corneal angiogenesis in animal models having corneal damage (subconjunctival injection). Format: in vivo, Sprague Dawley rats. As to conditions: subconjunctival injection 20 μl; KR 0.3 mg/ml, Avastin 10 mg/ml; 1 week after administration. Here is the method:
(§4) The tests were performed by using Sprague Dawley rats (8 weeks old, male) as animals having corneal damage (15 rats for the experiment group; and 1 rat for normal group, respectively). The corneal damage was induced by applying a cotton swab coated with silver nitrate to the surface of the rat corneas, as as to induce a damage having a diameter of 2 mm in the central cornea. On the third day after inducing the corneal damages, we confirmed the establishment of corneal angiogenesis-inducing models and then subconjunctivally injected a solution (20 μl) prepared by dissolving the compound of Preparation Example 23, i.e., (2R,3R,4S)-6-amino-4-[N-(4-chlorophenyl)-N-(1H-imidazol-2-ylmethyl)amino]-3-hydroxy-2-methyl-2-dimethoxymethyl-3,4-dihydro-2H-1-benzopyran (KR-31831) in phosphate buffered saline (PBS) containing 10% PEG 400, in the concentration of 0.3 mg/ml. In case of the control group, the PBS (20 μl) containing 10% PEG 400 was subconjunctivally injected. As a positive control, a solution (20 μl) prepared by dissolving Avastin (used as an angiogenesis inhibitor) in PBS in the concentration of 10 mg/ml was subconjunctivally injected. The evaluations quantifying the photographs of FIG. 1 were performed by using the Image J (NIH, USA) program and the results thereof were shown in FIG. 2.

Series [4] concerns corneal angiogenesis. The series is described as follows: Inhibitory effects against corneal angiogenesis, subconjunctival injection and eye drop-administration. The series is classed as in vivo, Sprague Dawley rats. As to conditions: subconjunctival injection 20 μl plus eye drop 50 μl; KR 0.3 mg/ml, Avastin 10 mg/ml. On the procedure: as §4, with “In case of the control group, the PBS (20 μl) containing 10% PEG 400 was subconjunctivally injected. As a positive control, a solution (20 μl) prepared by dissolving Avastin (used as an angiogenesis inhibitor) in PBS in the concentration of 10 mg/ml was subconjunctivally injected.” left out
Except for performing both the subconjunctival injection and the eye drop-administration of (2R,3R,4S)-6-amino-4-[N-(4-chlorophenyl)-N-(1H-imidazol-2-ylmethyl)amino]-3-hydroxy-2-methyl-2-dimethoxymethyl-3,4-dihydro-2H-1-benzopyran and Avastin, the inhibitory effects against angiogenesis were evaluated according to the same manners as in Example 1. […]

For another series, the system named is VEGF receptor 2 (FLK-1). Description: Expression of VEGF receptor 2 (FLK-1) in corneal tissue by RT-PCR. Format: in vivo, rats. As to conditions: subconjunctival injection 20 μl; KR 0.3 mg/ml, Avastin 10 mg/ml. On the procedure:
The tests were performed for confirming corneal angiogenesis as a marker. To a Trizole™ solution (200 μl), were added each corneal tissue obtained from the rats of Example 1. Total RNAs were isolated and then cDNAs were prepared by using a reverse transcriptase. Each cDNA (5 μl) was mixed with the primer set of FLK-1 and then PCR amplication was performed in a thermocycler under the following conditions; denaturation at 94° C. for 5 minutes, and then 35 cycles of denaturation at 94° C. for 20 seconds, annealing at 58° C. for 1 minute, and extension at 72° C. for 25 seconds. Each PCR product was loaded on 1% agarose gel; and the resulting ethidium bromide fluorescent bands were identified.

The subject of another series is retinal angiogenesis. Description: Laser-induced retinal damage model, retinal angiogenesis by dextran-FITC fluorescence. Format: in vivo, Brown Norway rats. As to conditions: Avastin 2.5 mg/ml, 10 μl into the vitreous humor; 2 weeks after administration. Here is the method:
The tests were performed by using Brown Norway rats (8 weeks old, male) as animals having retinal damage (15 rats for the experiment group; and 1 rat for normal group, respectively). The retinal Bruch's membrane of each Brown Norway rat was damaged using a Zeiss 532s laser at the intensity of […], 30 ms. On the third day after the laser-damaging, the drug was administered into the vitreous humor in order to observe the retinal vessels. The compound of the present invention, i.e., (2R,3R,4S)-6-amino-4-[N-(4-chlorophenyl)-N-(1H-imidazol-2-ylmethyl)amino]-3-hydroxy-2-methyl-2-dimethoxymethyl-3,4-dihydro-2H-1-benzopyran was administered with the solutions (10 μl of each solution) obtained by dissolving in PBS containing 30% PEG 400 and 10% DMSO, in the concentrations of 0.1 mg/ml and 0.3 mg/ml. Avastin was administered with the solution (10 μl) obtained by dissolving in PBS in the concentration of 2.5 mg/ml. In case of the control group, the PBS (10 μl) was administered. In addition, (2R,3R,4S)-6-amino-4-[N-(4-chlorophenyl)-N-(1H-imidazol-2-ylmethyl)amino]-3-hydroxy-2-methyl-2-dimethoxymethyl-3,4-dihydro-2H-1-benzopyran was intraperitoneally administered with the solution obtained by dissolving in PBS containing 30% PEG 400 and 10% DMSO, in the dose of 25 mg/kg. 2 weeks after the drug administrations, dextran-FITC was injected into the left ventricle in the dose of 25 mg/kg, followed by enucleating the eye after 5 minutes therefrom; and then fixing in a 10% formalin solution. The cornea and the eye lens were removed from the fixed eye, which was then observed under a fluorescence microscope. Angiogenesis was identified by the intensity and leakage of dextran-FITC in the laser-induced damage site; and the results thereof were shown in FIG. 7. The evaluations quantifying the photographs of FIG. 7 were performed by using the Image J (NIH, USA) program and the results thereof were shown in FIG. 8.

On to `CNC1(C)C2CCC(C2)C1(C)C` (stereo not shown) [ATG-003], for which, in series [1], the “inhibitory effect on normal healing of rat corneal epithelial wound” value (“inhibitory effect on normal healing” for short) was “showed inhibitory effect”; the “rate (%) of wound healing compared to vehicle control and KR-31831 (rank)” value (“rate (%) of wound healing” for short) is recorded as “the second lowest rate (%) of wound healing”. Also, in series [2], the “inhibitory effect on normal healing” value is recorded as “showed inhibitory effect”.

With `Cc1cc(-c2cc(OC(=O)c3ccccc3)ccc2Cl)cc2nnc(Nc3ccc(OCCN4CCCC4)cc3)nc12` [TG100801], in series [1], the “inhibitory effect on normal healing” value is reported as “showed inhibitory effect”; the “rate (%) of wound healing” value is “the lowest rate (%) of wound healing”. In series [2], the “inhibitory effect on normal healing” value was “showed inhibitory effect”.

Consider `Cc1ccc(Nc2nccc(N(C)c3ccc4c(C)n(C)nc4c3)n2)cc1S(N)(=O)=O` [Pazopanib], for which, in series [1], the “inhibitory effect on normal healing” value was “showed inhibitory effect”; the “rate (%) of wound healing” value is given as “the least lowest rate (%) of wound healing among the three but lower than the control”. The “inhibitory effect on normal healing” value in series [2] was “showed inhibitory effect”.

As to “Avastin: protein drug used in anti-VEGF antibody injection therapy; used as an angiogenesis inhibitor, positive control”, the “corneal angiogenesis in comparison with the corneal angiogenesis (100%) of the control group” value in the series on corneal angiogenesis [3] was found to be 66.4±10.6%. In the series with corneal angiogenesis [4], the “angiogenesis in comparison with the angiogenesis (100%) of the control group” value came out at 29.3±8.6%. Also, the “FLK-1 expression in the cornea (control group 100%)” value with VEGF receptor 2 (FLK-1) is listed as “about 59%”. Moreover, in the series with retinal angiogenesis, the “fluorescence intensity at laser-induced damage site (surrounding vessels = 100)” value is given as 46±3.

(Values after patent US20180221343A1, “PHARMACEUTICAL COMPOSITION FOR PREVENTING OR TREATING MACULAR DEGENERATION” (KOREA RESEARCH INSTITUTE OF CHEMICAL TECHNOLOGY, priority 2011, published 2018).)
